Measured values from patent US10940188B2, “Compounds and methods for treatment and prevention of Flavivirus infection” (priority 2016, dated 2021).
Values joined by “and” are separate entries in the source; they are usually repeats but may differ in a detail not shown here. Equal values may be shown once. Read-outs that look alike come from different tables or passages of the source.

Key:
[1] = tested on: ZIKV-induced cell death in SNB-19 cells; assay: ATP cell viability assay for ZIKV-induced cell death, SNB-19 cells; format: cell-based, human
Summary of the method: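 The extent of cell death caused by ZIKV infection was determined from ATP levels. Cells grew in assay plates for 16 hours at 37° C. with 5% CO2, were then given ZIKV solution and kept under the same conditions for 72 hours. ATPlite reagent was applied for 15 minutes and luminescence was read on a ViewLux plate reader. Cell-free wells defined 100% killing and uninfected cell wells defined full viability.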

[2] = tested on: ZIKV-induced caspase 3/7 activity in hNPCs; assay: Caspase 3/7 activity assay, ZIKV-infected hNPCs; format: cell-based; conditions: for IC50: read-out: Caspase 3 (IC50, uM) NPCs; for Emax: read-out: Caspase 3 (efficacy, %) NPCs
Summary of the method: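 Human NPCs, SNB-19 cells or astrocytes seeded 16 h, compound added 30 min before ZIKV, then 6 h infection at 37 °C. Caspase-Glo 3/7 luminescence after 30 min at room temperature, normalized to uninfected cells (0%) and ZIKV-infected cells (100%).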

[3] = Homo sapiens, ZIKV-infected hNPCs
[4] = ZIKV-infected SNB-19 cells, read-out: Cell viability (IC50, uM) SNB-19
[5] = Homo sapiens, SNB-19, following ZIKV infection, read-out: IC50 (μM) for improving cell viability, SNB-19
[6] = Homo sapiens, ZIKV-infected SNB-19 cells, read-out: Cell viability (IC50, uM) SNB-19

Row | Molecule | Cell viability (efficacy, %) SNB-19 ([1]; ZIKV-infected SNB-19 cells) [%] | IC50 [2, 3] [µM] | Emax [2, 3] [%] | other results
1 | O=C(Nc1ccc(C(=O)O)c(O)c1)c1ccccc1 [Benzoylpas] | 0.0 | 4.89 | 85.4 | –
2 | CN1CC(=O)NC1=NC(=O)Nc1cccc(Cl)c1 [Fenobam] | 60.5 | – | – | IC50 [1, 4]: 1.73 µM; Caspase 3 (efficacy, %) NPCs ([2]; ZIKV-infected hNPCs): 108%; IC50 ([2]; ZIKV-infected hNPCs): 5.48 µM
3 | O=C1NC(=O)C(=Cc2ccc(-c3ccc(F)cc3)o2)S1 [CAY10505] | 0.0 | – | – | Caspase 3 (efficacy, %) NPCs ([2]; ZIKV-infected hNPCs): 83.5%; IC50 ([2]; ZIKV-infected hNPCs): 10.9 µM
4 | c1ccc2[nH]c(-c3cscn3)nc2c1 [Thiabendazole] | 0.0 | 9.75 | 83.4 | –
5 | Flurbiprofen axetil | 0.0 | – | – | Caspase 3 (efficacy, %) NPCs ([2]; ZIKV-infected hNPCs): 0.0%
6 | Cc1cc(O)c2c(c1)C(=O)c1cc(O)cc(O)c1C2=O [Emodin] | 0.0 | 2.59 | 82.1 | –
7 | C[C@H](NC(=O)C(=O)Nc1ccccc1C(C)(C)C)C(=O)N[C@@H](CC(=O)O)C(=O)COc1c(F)c(F)cc(F)c1F [Emricasan] | 194 | 0.37 | 85.3 | IC50 [1, 5]: 0.87 µM; IC50 ([1]; Homo sapiens, SNB-19 cells, three ZIKV strains MR766, FSS13025, PRVABC59, read-out: IC50 in the cell viability assay): 0.13 to 0.9 µM; IC50 [1, 6]: 0.87 µM
8 | CC(C(=O)O)c1ccc(C(=O)c2ccccc2)s1 (stereo not shown) [Tiaprofenic acid] | 0.0 | 8.69 | 86.7 | –
9 | O=C1NC(=O)/C(=C/c2ccc(-c3ccc(F)cc3O)o2)S1 [AS-252424] | 0.0 | – | – | Caspase 3 (efficacy, %) NPCs ([2]; ZIKV-infected hNPCs): 52.3%; IC50 ([2]; ZIKV-infected hNPCs): 1.64 µM
10 | CN1CCN(c2cc3c(nn2)Oc2ccccc2N3C)CC1 [Pipofezine] | 0.0 | 12 | 47.7 | –
11 | Cc1ccc(O)c(-n2nc3ccccc3n2)c1 [2-(2H-Benzotriazol-2-yl)-4-methylphenol] | 0.0 | 4.89 | 77.6 | –
12 | CC(C(=O)O)c1ccc(C(=O)c2cccs2)cc1 (stereo not shown) [Suprofen] | 0.0 | 15.5 | 59.1 | –
13 | O=C(c1ccccc1)c1ccc2n1CCC2C(=O)O (stereo not shown) [Ketorolac tromethamine] | 0.0 | 10.3 | 75 | –
14 | O=C(O)CCC(=O)c1ccc(-c2ccccc2)cc1 [Fenbufen] | 0.0 | 19.5 | 72.5 | –
15 | C/C1=C2/[N-][C@H]([C@H](CC(N)=O)[C@@]2(C)CCC(=O)NC[C@@H](C)OP(=O)([O-])O[C@H]2[C@@H](O)[C@@H](n3cnc4cc(C)c(C)cc43)O[C@@H]2CO)[C@]2(C)N=C(/C(C)=C3N=C(/C=C4N=C1[C@@H](CCC(N)=O)C\4(C)C)[C@@H](CCC(N)=O)[C@]\3(C)CC(N)=O)[C@@H](CCC(N)=O)[C@]2(C)CC(N)=O.[Co+3].[OH-] [Hydroxocobalamin] | 0.0 | – | – | Caspase 3 (efficacy, %) NPCs ([2]; ZIKV-infected hNPCs): 67.4%; IC50 ([2]; ZIKV-infected hNPCs): 0.87 µM
16 | O=C(Nc1ccc([N+](=O)[O-])cc1Cl)c1cc(Cl)ccc1O [Niclosamide] | 97.3 | 1.84 | 87.5 | IC50 [1, 5]: 1.95 µM; IC50 [1, 6]: 1.95 µM
17 | CCOCCOC(=O)C=Cc1ccc(OC)cc1 [2-Ethoxylethyl-p-methoxycinnamate] | 0.0 | 18.4 | 56 | –
18 | Vitamin B12 | – | – | – | IC50 [1, 4]: 0.12 µM; Caspase 3 (efficacy, %) NPCs ([2]; ZIKV-infected hNPCs): 94.7% and 59.1%; IC50 ([2]; ZIKV-infected hNPCs): 6.9 µM and 11.3 µM

Row | Molecule | Cell viability (efficacy, %) SNB-19 ([1]; ZIKV-infected SNB-19 cells) [%] | IC50 [2, 3] [µM] | Emax [2, 3] [%] | other results
19 | O=C(O)c1ccccc1Nc1cccc(C(F)(F)F)c1 [Flufenamic acid] | 0.0 | 17.3 | 68.1 | –
20 | CN(C)CCCSc1ccccc1NC(=O)/C=C/c1ccccc1 [Cinanserin] | 56.9 | 17.3 | 80.4 | IC50 [1, 6]: 19.5 µM
21 | CC(=O)Nc1ccc([C@H](C)C(=O)Nc2ncc(C(C)C)s2)cc1 [PHA-690509] | 165 | – | – | IC50 [1, 4]: 10.9 µM; IC50 ([1]; following ZIKV infection, read-out: IC50 (μM) for improving cell viability, SNB-19): 10.1 µM; Caspase 3 (efficacy, %) NPCs ([2]; ZIKV-infected hNPCs): 73.0%; IC50 ([2]; ZIKV-infected hNPCs): 19.5 µM
22 | O=C(O)c1ccccc1NCCc1ccccc1 [Enfenamic acid] | 0.0 | 21.8 | 47.1 | –
23 | CC(=O)Oc1cccc2c1C(=O)c1c(OC(C)=O)cc(C(=O)O)cc1C2=O [Diacerein] | 0.0 | 15.5 | 56.5 | –
24 | O=S(=O)(O)c1ccc2[nH]c(-c3ccccc3)nc2c1 [Ensulizole] | 0.0 | – | – | IC50 ([2]; Homo sapiens): 1.38 µM; Emax ([2]; Homo sapiens): 80.6%
25 | Cc1cccc(/C=C/c2ccccc2)n1 [SIB 1893] | 0.0 | – | – | Caspase 3 (efficacy, %) NPCs ([2]; ZIKV-infected hNPCs): 95.2%; IC50 ([2]; ZIKV-infected hNPCs): 8.69 µM
26 | CCC(C(=O)O)c1ccc(N2Cc3ccccc3C2=O)cc1 (stereo not shown) [Indobufen] | 0.0 | 6.15 | 81.3 | –
27 | c1ccc(CCNc2nc(-c3ccccc3)cs2)cc1 [Fanetizole] | 0.0 | 14.6 | 81.8 | –
28 | O=C(Oc1ccccc1)c1cccc(C(=O)Oc2ccccc2)c1 [Diphenyl isophthalate] | 0.0 | 4.47 | 89.4 | –
29 | N#CC1(c2ccc(NC(=O)c3cccnc3NCc3ccncc3)cc2)CCCC1 [Apatinib] | 0.0 | – | 0 | –
30 | O=C(O)c1cc([N+](=O)[O-])ccc1NCCCc1ccccc1 [5-Nitro-2-(3-phenylpropylamino)benzoic acid] | 0.0 | 8.69 | 59.8 | –
31 | O=C1c2ccccc2C(=O)c2c1ccc(O)c2O [Alizarin] | 0.0 | 21.8 | 58.5 | –
32 | O=C(OCc1ccccc1)c1ccc(O)cc1 [Benzylparaben] | 0.0 | 15.5 | 56 | –
33 | Cc1cccc(C#Cc2ccccc2)n1 [MPEP, 2-Methyl-6-(phenylethynyl)pyridine] | 0.0 | 4.11 | 96.1 | –
34 | COc1cccc(-c2ccc(NC(=O)C3=C(C(=O)O)CCC3)c(F)c2)c1 [Vidofludimus] | 0.0 | 2.45 | 87.8 | –
35 | Nc1nc2ccc([N+](=O)[O-])cc2s1 [2-Amino-6-nitrobenzothiazole] | 0.0 | 56.2 | 57.1 | –
36 | COc1ccc(-c2cc(=S)ss2)cc1 [Anethole trithione] | 0.0 | 13 | 70.3 | –
